Measurements from patent publication US20070049564A1 (Wyeth, priority 2005, published 2007).
In brackets after ≈: the same amount, converted by molar mass. Where two headings read alike, the source gives them in different places.

Assays:
[1] = test system: S. epidermidis GC 4935; assay: MIC, broth microdilution; settings: Staphylococcus epidermidis
[2] = test system: S. pneumoniae* GC 4465; assay: MIC, broth microdilution; settings: Streptococcus pneumoniae
[3] = test system: S. aureus GC 1131; assay: MIC, broth microdilution; settings: Staphylococcus aureus
[4] = test system: E. coli GC 2234; assay: MIC, broth microdilution; settings: Escherichia coli
[5] = test system: E. coli GC 2272; assay: MIC, broth microdilution; settings: Escherichia coli
[6] = test system: P. aeruginosa GC 2214; assay: MIC, broth microdilution; settings: Pseudomonas aeruginosa
[7] = test system: S. aureus GC 6466; assay: MIC, broth microdilution; settings: Staphylococcus aureus
[8] = test system: E. faecalis GC 2267; assay: MIC, broth microdilution; settings: Enterococcus faecalis
Procedure: (§1) Antimicrobial susceptibility testing. The in vitro activities of the antibiotics are determined by the broth microdilution method as recommended by the National Committee for Clinical Laboratory Standards (NCCLS) (1). Mueller-Hinton II broth (MHBII)(BBL Cockeysville, Md.) is the medium employed in the testing procedures. Microtiter plates containing serial dilutions of each antimicrobial agent are inoculated with each organism to yield the appropriate density (10^5 CFU/ml) in a 100 μl final volume. The plates are incubated for 18-22 hours at 35° C. in ambient air.
(§2) Representative compounds were first incubated in mouse serum for an hour prior to the in vitro testing against a panel of selected gram-positive and gram-negative bacteria strains. All compounds were also pre-incubated in water for an hour prior to testing as control.

[9] = test system: S. aureus GC 2216; assay: MIC, broth microdilution; settings: Staphylococcus aureus
[10] = test system: E. coli GC 6465; assay: MIC, broth microdilution; settings: Escherichia coli
[11] = test system: E. coli GC 4559; assay: MIC, broth microdilution; settings: Escherichia coli
[12] = test system: E. coli GC 2231; assay: MIC, broth microdilution; settings: Escherichia coli
Procedure: as §1, §2

[13] = test system: E. coli GC 2232; assay: MIC, broth microdilution; settings: Escherichia coli
[14] = test system: S. aureus GC 6467; assay: MIC, broth microdilution; settings: Staphylococcus aureus
[15] = test system: Staph. aureus Smith; assay: In vivo activity (oral, iv; ED50) against Staph. aureus Smith in mice
Procedure: Representative examples of compounds of Formula I were tested for the oral efficacy using S. aureus Smith in mice.

[16] = test system: E. faecalis GC 2242; assay: MIC, broth microdilution; settings: Enterococcus faecalis
[17] = test system: E. coli GC 4560; assay: MIC, broth microdilution; settings: Escherichia coli
[18] = test system: E. coli GC 2203; assay: MIC, broth microdilution; settings: Escherichia coli
[19] = test system: S. pneumoniae+ GC 4465; assay: MIC, broth microdilution; settings: Streptococcus pneumoniae
[20] = test system: S. aureus GC 4536; assay: MIC, broth microdilution; settings: Staphylococcus aureus
[21] = GC4935, read-out: MINIMAL INHIBITORY CONCENTRATION MIC, pre-incubated in Mouse Serum
[22] = GC4935, read-out: MINIMAL INHIBITORY CONCENTRATION MIC, pre-incubated in Water
[23] = read-out: MINIMAL INHIBITORY CONCENTRATION MIC, pre-incubated in Mouse Serum
[24] = read-out: MINIMAL INHIBITORY CONCENTRATION MIC, pre-incubated in Water
[25] = GC1131, read-out: MINIMAL INHIBITORY CONCENTRATION MIC, pre-incubated in Mouse Serum
[26] = GC1131, read-out: MINIMAL INHIBITORY CONCENTRATION MIC, pre-incubated in Water
[27] = GC2234, read-out: MINIMAL INHIBITORY CONCENTRATION MIC, pre-incubated in Mouse Serum
[28] = GC2234, read-out: MINIMAL INHIBITORY CONCENTRATION MIC, pre-incubated in Water
[29] = GC2272, read-out: MINIMAL INHIBITORY CONCENTRATION MIC, pre-incubated in Mouse Serum
[30] = GC2272, read-out: MINIMAL INHIBITORY CONCENTRATION MIC, pre-incubated in Water
[31] = GC2214, read-out: MINIMAL INHIBITORY CONCENTRATION MIC, pre-incubated in Mouse Serum
[32] = GC2214, read-out: MINIMAL INHIBITORY CONCENTRATION MIC, pre-incubated in Water
[33] = GC6466, read-out: MINIMAL INHIBITORY CONCENTRATION MIC, pre-incubated in Mouse Serum
[34] = GC6466, read-out: MINIMAL INHIBITORY CONCENTRATION MIC, pre-incubated in Water
[35] = GC2267, read-out: MINIMAL INHIBITORY CONCENTRATION MIC, pre-incubated in Mouse Serum
[36] = GC2267, read-out: MINIMAL INHIBITORY CONCENTRATION MIC, pre-incubated in Water
[37] = GC2216, read-out: MINIMAL INHIBITORY CONCENTRATION MIC, pre-incubated in Mouse Serum
[38] = GC2216, read-out: MINIMAL INHIBITORY CONCENTRATION MIC, pre-incubated in Water
[39] = GC6465, read-out: MINIMAL INHIBITORY CONCENTRATION MIC, pre-incubated in Mouse Serum
[40] = GC6465, read-out: MINIMAL INHIBITORY CONCENTRATION MIC, pre-incubated in Water
[41] = GC4559, read-out: MINIMAL INHIBITORY CONCENTRATION MIC, pre-incubated in Mouse Serum
[42] = GC4559, read-out: MINIMAL INHIBITORY CONCENTRATION MIC, pre-incubated in Water
[43] = GC2231, read-out: MINIMAL INHIBITORY CONCENTRATION MIC, pre-incubated in Mouse Serum
[44] = GC2231, read-out: MINIMAL INHIBITORY CONCENTRATION MIC, pre-incubated in Water
[45] = GC2232, read-out: MINIMAL INHIBITORY CONCENTRATION MIC, pre-incubated in Mouse Serum
[46] = GC2232, read-out: MINIMAL INHIBITORY CONCENTRATION MIC, pre-incubated in Water
[47] = GC6467, read-out: MINIMAL INHIBITORY CONCENTRATION MIC, pre-incubated in Mouse Serum
[48] = GC6467, read-out: MINIMAL INHIBITORY CONCENTRATION MIC, pre-incubated in Water
[49] = Staphylococcus aureus, in Mus musculus, po, read-out: ED50 Staph Smith SOD
[50] = iv, read-out: ED50 Staph Smith SIV
[51] = GC2242, read-out: MINIMAL INHIBITORY CONCENTRATION MIC, pre-incubated in Mouse Serum
[52] = GC2242, read-out: MINIMAL INHIBITORY CONCENTRATION MIC, pre-incubated in Water
[53] = GC4560, read-out: MINIMAL INHIBITORY CONCENTRATION MIC, pre-incubated in Mouse Serum
[54] = GC4560, read-out: MINIMAL INHIBITORY CONCENTRATION MIC, pre-incubated in Water
[55] = GC2203, read-out: MINIMAL INHIBITORY CONCENTRATION MIC, pre-incubated in Mouse Serum
[56] = GC2203, read-out: MINIMAL INHIBITORY CONCENTRATION MIC, pre-incubated in Water
[57] = GC4536, read-out: MINIMAL INHIBITORY CONCENTRATION MIC, pre-incubated in Mouse Serum
[58] = GC4536, read-out: MINIMAL INHIBITORY CONCENTRATION MIC, pre-incubated in Water

Structure (SMILES): CCCN(CC(=O)Nc1cc(N(C)C)c2c(c1O)C(=O)C1=C(O)[C@]3(O)C(=O)C(C(N)=O)=C(O)[C@@H](N(C)C)[C@@H]3C[C@@H]1C2)C(=O)OCOC(=O)c1ccc(-c2ccccc2)cc1 [Example 24, ({[(2-{[(5aR,6aS,7S,10aS)-9-(aminocarbonyl)-4,7-bis(dimethylamino)-1,8,10a,11-tetrahydroxy-10,12-dioxo-5,5a,6,6a,7,10,10a,12-octahydrotetracen-2-yl]amino}-2-oxoethyl)(propyl)amino]carbonyl}oxy)methyl 1,1′-biphenyl-4-carboxylate]
- MIC [1, 21]: 2 µg/mL (≈ 2.42 µM)
- MIC [1, 22]: 16 µg/mL (≈ 19.4 µM)
- MIC [2, 23]: < 0.06 µg/mL
- MIC [2, 24]: < 0.06 µg/mL
- MIC [3, 25]: 1 µg/mL (≈ 1.21 µM)
- MIC [3, 26]: 2 µg/mL (≈ 2.42 µM)
- MIC [4, 27]: 0.5 µg/mL (≈ 0.605 µM)
- MIC [4, 28]: > 64 µg/mL
- MIC [5, 29]: 1 µg/mL (≈ 1.21 µM)
- MIC [5, 30]: > 64 µg/mL
- MIC [6, 31]: 16 µg/mL (≈ 19.4 µM)
- MIC [6, 32]: > 64 µg/mL
- MIC [7, 33]: 0.25 µg/mL (≈ 0.303 µM)
- MIC [7, 34]: 0.5 µg/mL (≈ 0.605 µM)
- MIC [8, 35]: 4 µg/mL (≈ 4.84 µM)
- MIC [8, 36]: 64 µg/mL (≈ 77.5 µM)
- MIC [9, 37]: 0.5 µg/mL (≈ 0.605 µM)
- MIC [9, 38]: 4 µg/mL (≈ 4.84 µM)
- MIC [10, 39]: 8 µg/mL (≈ 9.69 µM)
- MIC [10, 40]: > 64 µg/mL
- MIC [11, 41]: 1 µg/mL (≈ 1.21 µM)
- MIC [11, 42]: > 64 µg/mL
- MIC [12, 43]: 2 µg/mL (≈ 2.42 µM)
- MIC [12, 44]: > 64 µg/mL
- MIC [13, 45]: 0.5 µg/mL (≈ 0.605 µM)
- MIC [13, 46]: > 64 µg/mL
- MIC [14, 47]: 4 µg/mL (≈ 4.84 µM)
- MIC [14, 48]: > 64 µg/mL
- ED50 [15, 49]: 27 mg/kg
- ED50 [15, 50]: 0.59 mg/kg
- MIC [16, 51]: 2 µg/mL (≈ 2.42 µM)
- MIC [16, 52]: 4 µg/mL (≈ 4.84 µM)
- MIC [17, 53]: 0.25 µg/mL (≈ 0.303 µM)
- MIC [17, 54]: 64 µg/mL (≈ 77.5 µM)
- MIC [18, 55]: 0.5 µg/mL (≈ 0.605 µM)
- MIC [18, 56]: > 64 µg/mL
- MIC [19, 23]: 2 µg/mL (≈ 2.42 µM)
- MIC [19, 24]: 1 µg/mL (≈ 1.21 µM)
- MIC [20, 57]: 1 µg/mL (≈ 1.21 µM)
- MIC [20, 58]: 4 µg/mL (≈ 4.84 µM)

Structure (SMILES): CCCN(CC(=O)Nc1cc(N(C)C)c2c(c1O)C(=O)C1=C(O)[C@]3(O)C(=O)C(C(N)=O)=C(O)[C@@H](N(C)C)[C@@H]3C[C@@H]1C2)C(=O)OCOC(=O)c1ccc(C(C)(C)C)cc1 [Example 28, ({[(2-{[(5aR,6aS,7S,10aS)-9-(aminocarbonyl)-4,7-bis(dimethylamino)-1,8,10a,11-tetrahydroxy-10,12-dioxo-5,5a,6,6a,7,10,10a,12-octahydrotetracen-2-yl]amino}-2-oxoethyl)(propyl)amino]carbonyl}oxy)methyl 4-tert-butylbenzoate]
- MIC [1, 21]: 1 µg/mL (≈ 1.24 µM)
- MIC [1, 22]: 32 µg/mL (≈ 39.7 µM)
- MIC [2, 23]: < 0.06 µg/mL
- MIC [2, 24]: < 0.06 µg/mL
- MIC [3, 25]: 0.5 µg/mL (≈ 0.62 µM)
- MIC [3, 26]: 32 µg/mL (≈ 39.7 µM)
- MIC [4, 27]: 0.25 µg/mL (≈ 0.31 µM)
- MIC [4, 28]: > 64 µg/mL
- MIC [5, 29]: 0.5 µg/mL (≈ 0.62 µM)
- MIC [5, 30]: > 64 µg/mL
- MIC [6, 31]: 16 µg/mL (≈ 19.9 µM)
- MIC [6, 32]: > 64 µg/mL
- MIC [7, 33]: 0.5 µg/mL (≈ 0.62 µM)
- MIC [7, 34]: 4 µg/mL (≈ 4.96 µM)
- MIC [8, 35]: 2 µg/mL (≈ 2.48 µM)
- MIC [8, 36]: 64 µg/mL (≈ 79.4 µM)
- MIC [9, 37]: 0.5 µg/mL (≈ 0.62 µM)
- MIC [9, 38]: 32 µg/mL (≈ 39.7 µM)
- MIC [10, 39]: 8 µg/mL (≈ 9.93 µM)
- MIC [10, 40]: > 64 µg/mL
- MIC [11, 41]: 0.5 µg/mL (≈ 0.62 µM)
- MIC [11, 42]: > 64 µg/mL
- MIC [12, 43]: 1 µg/mL (≈ 1.24 µM)
- MIC [12, 44]: > 64 µg/mL
- MIC [13, 45]: 0.5 µg/mL (≈ 0.62 µM)
- MIC [13, 46]: > 64 µg/mL
- MIC [14, 47]: 4 µg/mL (≈ 4.96 µM)
- MIC [14, 48]: 64 µg/mL (≈ 79.4 µM)
- ED50 ([15]; Staphylococcus aureus, in Mus musculus, iv, read-out: ED50 SIV (Staph aureus Smith)): 0.6 mg/kg
- ED50 ([15]; Staphylococcus aureus, in Mus musculus, po, read-out: ED50 SOD (Staph aureus Smith)): 6.61 mg/kg
- ED50 [15, 49]: 6.61 mg/kg
- ED50 [15, 50]: 0.6 mg/kg
- MIC [16, 51]: 0.5 µg/mL (≈ 0.62 µM)
- MIC [16, 52]: 4 µg/mL (≈ 4.96 µM)
- MIC [17, 53]: 0.25 µg/mL (≈ 0.31 µM)
- MIC [17, 54]: > 64 µg/mL
- MIC [18, 55]: 0.5 µg/mL (≈ 0.62 µM)
- MIC [18, 56]: > 64 µg/mL
- MIC [19, 23]: 2 µg/mL (≈ 2.48 µM)
- MIC [19, 24]: 0.5 µg/mL (≈ 0.62 µM)
- MIC [20, 57]: 0.5 µg/mL (≈ 0.62 µM)
- MIC [20, 58]: 32 µg/mL (≈ 39.7 µM)
